Measured values taken from US20250034216A1, “STEREOSELECTIVE COVALENT LIGANDS FOR ONCOGENIC AND IMMUNOLOGICAL PROTEINS” (The Scripps Research Institute, priority 2021, published 2025).

Molecular target: T1, NSD2_C1018 (Homo sapiens, UniProt O96028)
T1 construct: endogenous in cells; host or cells: 22Rv1
T1 sequence (O96028 1-1365): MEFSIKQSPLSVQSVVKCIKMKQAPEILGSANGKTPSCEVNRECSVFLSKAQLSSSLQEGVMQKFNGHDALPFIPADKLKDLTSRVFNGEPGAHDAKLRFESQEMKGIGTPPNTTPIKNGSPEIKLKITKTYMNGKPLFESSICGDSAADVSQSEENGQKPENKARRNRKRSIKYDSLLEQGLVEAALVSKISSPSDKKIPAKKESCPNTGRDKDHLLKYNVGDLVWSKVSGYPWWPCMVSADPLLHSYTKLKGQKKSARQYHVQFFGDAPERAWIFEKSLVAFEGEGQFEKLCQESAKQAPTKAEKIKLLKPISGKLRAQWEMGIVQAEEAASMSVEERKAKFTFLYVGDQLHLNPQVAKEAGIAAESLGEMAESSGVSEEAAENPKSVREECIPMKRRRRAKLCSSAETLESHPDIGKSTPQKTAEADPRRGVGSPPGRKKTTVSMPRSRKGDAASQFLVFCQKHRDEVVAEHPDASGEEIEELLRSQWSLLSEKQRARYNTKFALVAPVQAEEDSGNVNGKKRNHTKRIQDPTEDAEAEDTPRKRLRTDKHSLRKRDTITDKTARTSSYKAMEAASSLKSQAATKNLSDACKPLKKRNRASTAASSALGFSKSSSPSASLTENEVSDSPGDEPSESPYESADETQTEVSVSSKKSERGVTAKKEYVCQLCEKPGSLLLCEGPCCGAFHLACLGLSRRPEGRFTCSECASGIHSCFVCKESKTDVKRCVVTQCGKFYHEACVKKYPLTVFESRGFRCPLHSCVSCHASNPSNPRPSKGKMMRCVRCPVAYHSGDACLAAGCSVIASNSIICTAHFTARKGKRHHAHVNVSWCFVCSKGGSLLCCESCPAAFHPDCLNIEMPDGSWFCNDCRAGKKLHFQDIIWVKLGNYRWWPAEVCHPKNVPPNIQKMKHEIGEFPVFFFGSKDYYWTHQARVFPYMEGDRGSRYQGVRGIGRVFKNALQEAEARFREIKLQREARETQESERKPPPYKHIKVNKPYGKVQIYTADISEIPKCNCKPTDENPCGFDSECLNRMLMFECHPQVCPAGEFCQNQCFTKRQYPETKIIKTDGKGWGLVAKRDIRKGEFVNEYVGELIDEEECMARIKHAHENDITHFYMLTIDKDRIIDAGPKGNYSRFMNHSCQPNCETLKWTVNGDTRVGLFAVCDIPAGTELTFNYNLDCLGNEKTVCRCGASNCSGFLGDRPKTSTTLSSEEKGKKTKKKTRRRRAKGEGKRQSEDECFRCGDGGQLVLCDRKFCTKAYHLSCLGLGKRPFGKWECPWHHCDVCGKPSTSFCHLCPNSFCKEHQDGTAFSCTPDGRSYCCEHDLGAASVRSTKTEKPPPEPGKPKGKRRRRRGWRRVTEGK
Test: IA-DTB cysteine engagement
Type: binding
Settings: 22Rv1 cells, 20 μM probe, 1 h, relative to DMSO
In short: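 Cells were treated in situ with electrophilic probes, then lysed, and the lysates (2 mg/mL protein) were labeled with IA-DTB for 1 h at ambient temperature. After reduction, alkylation and trypsin digestion, labeled peptides were streptavidin-enriched, TMT-labeled and fractionated. Engagement ratios are probe vs DMSO reporter intensities, averaged across replicates.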

| SMILES | % engagement NSD2_C1018 |
| --- | --- |
| C=CC(=O)N1C[C@H](c2ccc(Br)cc2)[C@@H]1C(=O)Nc1cccc2cccnc12 [MY-1B, (2R,3S)-1-acryloyl-3-(4-bromophenyl)-N-(quinolin-8-yl)azetidine-2-carboxamide] | 43.75% |
| C=CC(=O)N1C[C@H](c2ccc(Br)cc2)[C@H]1C(=O)Nc1cccc2cccnc12 [MY-3B, (2S,3S)-1-acryloyl-3-(4-bromophenyl)-N-(quinolin-8-yl)azetidine-2-carboxamide] | 67% |
| C=CC(=O)N1C[C@H](c2ccc(Br)cc2)[C@H]1C(=O)Nc1cccc2cccnc12 [MY-3A, (2S,3S)-1-acryloyl-3-(4-bromophenyl)-N-(quinolin-8-yl)azetidine-2-carboxamide] | 36.75% |
| C=CC(=O)N1C[C@@H](c2ccc(Br)cc2)[C@H]1C(=O)Nc1cccc2cccnc12 [MY-1A, (2S,3R)-1-acryloyl-3-(4-bromophenyl)-N-(quinolin-8-yl)azetidine-2-carboxamide] | 16.5% |
